T1: 3-hydroxy-3-methylglutaryl-coenzyme A reductase (Rattus norvegicus) (UniProt P51639)
T1 sequence (whole entry): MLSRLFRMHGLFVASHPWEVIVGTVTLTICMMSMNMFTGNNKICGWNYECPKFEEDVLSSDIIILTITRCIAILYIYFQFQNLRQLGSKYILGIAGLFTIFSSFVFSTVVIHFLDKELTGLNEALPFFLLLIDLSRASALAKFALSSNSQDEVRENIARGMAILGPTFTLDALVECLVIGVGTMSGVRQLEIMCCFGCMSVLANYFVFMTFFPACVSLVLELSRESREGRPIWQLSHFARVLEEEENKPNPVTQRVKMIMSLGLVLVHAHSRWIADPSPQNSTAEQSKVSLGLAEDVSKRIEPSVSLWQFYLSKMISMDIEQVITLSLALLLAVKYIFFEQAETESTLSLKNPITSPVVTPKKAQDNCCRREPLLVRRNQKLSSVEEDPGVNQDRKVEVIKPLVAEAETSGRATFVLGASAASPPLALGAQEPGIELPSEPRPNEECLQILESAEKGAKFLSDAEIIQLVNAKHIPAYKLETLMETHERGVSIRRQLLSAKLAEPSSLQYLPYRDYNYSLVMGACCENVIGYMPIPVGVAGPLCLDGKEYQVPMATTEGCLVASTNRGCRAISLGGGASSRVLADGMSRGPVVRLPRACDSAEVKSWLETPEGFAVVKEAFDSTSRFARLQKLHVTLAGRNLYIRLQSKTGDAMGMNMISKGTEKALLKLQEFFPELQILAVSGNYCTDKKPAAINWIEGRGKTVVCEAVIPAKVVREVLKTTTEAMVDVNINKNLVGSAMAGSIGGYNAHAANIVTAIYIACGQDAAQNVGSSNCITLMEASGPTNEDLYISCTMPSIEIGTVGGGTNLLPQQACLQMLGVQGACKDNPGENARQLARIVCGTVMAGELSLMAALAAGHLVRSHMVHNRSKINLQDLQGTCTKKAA

T2: 3-hydroxy-3-methylglutaryl-coenzyme A reductase (Rattus norvegicus, UniProt P51639)
T2 sequence (P51639 whole entry): T1 sequence (whole entry)

B1: 3-hydroxy-3-methylglutaryl-coenzyme A reductase (Rattus norvegicus), P51639 (protein)
chain: T1 sequence (whole entry)

Tests used:
[1] = target: T1, 3-hydroxy-3-methylglutaryl-coenzyme A reductase (Rattus norvegicus); test: In vitro inhibition of rat liver HMG-CoA reductase at concentration of 10e-3 M
[2] = target: T2, 3-hydroxy-3-methylglutaryl-coenzyme A reductase; test: Inhibition of HMG-CoA reductase from rat liver
Rattus norvegicus [3] = test: Percent reduction of Serum Cholesterol in Triton-treated rat at dose 200 mg/kg by intragastric administration (p<0.01); type: functional
Rattus norvegicus [4] = test: Percent reduction of Serum Cholesterol in Triton-treated rat at dose 50 mg/kg by intragastric administration; type: functional
Rattus norvegicus [5] = test: Percent reduction of Serum Cholesterol in Triton-treated rat at dose 80 mg/kg by intragastric administration; type: functional
Rattus norvegicus [6] = test: Percent reduction of HMGR activity in diazasterol-treated rat at dose 10 mg/kg by intragastric administration; type: functional
Rattus norvegicus [7] = test: Percent reduction of Serum Cholesterol in Triton-treated rat at dose 100 mg/kg by intragastric administration (p<0.01); type: functional
Rattus norvegicus [8] = test: Percent reduction of Serum Cholesterol in Triton-treated rat at dose 300 mg/kg by intragastric administration (p<0.01); type: functional
Rattus norvegicus [9] = test: Percent reduction of HMGR activity in diazasterol-treated rat at dose 100 mg/kg by intragastric administration (p<0.05); type: functional
Rattus norvegicus [10] = test: Percent reduction of HMGR activity in diazasterol-treated rat at dose 20 mg/kg by intragastric administration (p<0.05); type: functional
Rattus norvegicus [11] = test: Percent reduction of HMGR activity in diazasterol-treated rat at dose 50 mg/kg by intragastric administration (p<0.05); type: functional
[12] = substrate: CCCCCCCCCCCCCCCC(O)(CC(=O)O)CC(=O)O
Description: Competitive inhibition of HMG-CoA reductase

| Molecule | inhibition [1] | other results |
| --- | --- | --- |
| CCCCCCCCCCCCCCCC1(OC(C)=O)CC(=O)OC(=O)C1 | 9% | – |
| CCOC(=O)CC(C)(O)CC(=O)OCC | 0% | – |
| CCCCCCCCCCCCCCCCCCCC(O)(CC(=O)O)CC(=O)O | 86% | IC50 [2]: 350 µM |
| CC1(O)CC(=O)OC(=O)C1 | 0% | – |
| CCCCCCC(O)(CC(=O)O)CC(=O)O | 5% | – |
| CCCCCCCCCCCCCCCC(O)(CC(=O)OCC)CC(=O)OCC | – | Reduction (Rattus norvegicus [3]): 3% |
| CC[C@H](C)C(=O)O[C@H]1CCC=C2C=C[C@H](C)[C@H](CC[C@@H]3C[C@@H](O)CC(=O)O3)[C@H]21 [MEVASTATIN] | – | Reduction (Rattus norvegicus [4]): 17%; Reduction (Rattus norvegicus [5]): 28%; Reduction (Rattus norvegicus [6]): 60% |
| CCCCCCCCCCCCCCCC(O)(CCO)CCO | 0% | – |
| CC1(O)CC(=O)NC(=O)C1 | 50% | – |
| CCCCCCCCCCC(O)(CC(=O)OCC)CC(=O)OCC | 0% | – |
| CCCC(O)(CC(=O)O)CC(=O)O | 37% | – |
| COC(=O)CC(C)(O)CC(N)=O (stereo not given) | 0% | – |
| CCCCCCCCCCC1(O)CCOC(=O)C1 (stereo not given) | 57% | – |
| CCCCCCCCCCCCCCC/C(=C\C(=O)O)CC(=O)O | 0% | – |
| CCCCCCCCCCCCCCCC(O)(CC(=O)O)CC(=O)OCCN(C)C (stereo not given) | 0% | – |
| CCCCCCCCCCC(O)(CCO)CCO | 0% | – |
| CCC(O)(CC(=O)O)CC(=O)O | 29% | – |
| CCCCCCCCCCCCCCCC(O)(CC(=O)O)CC(=O)O | 99% | IC50 [2]: 50 µM; Reduction (Rattus norvegicus [7]): 4%; Reduction (Rattus norvegicus [3]): 17%; Reduction (Rattus norvegicus [8]): 22%; Reduction (Rattus norvegicus [9]): 40%; Reduction (Rattus norvegicus [10]): 27%; Reduction (Rattus norvegicus [11]): 31% |
| CC(C)C(O)(CC(=O)O)CC(=O)O | 10% | – |
| CCCCCCCCCCCCCCCC(O)(CC(=O)OC)CC(=O)OC | 1% | Reduction (Rattus norvegicus [7]): 4%; Reduction (Rattus norvegicus [3]): 4%; Reduction (Rattus norvegicus [8]): 2% |
| CC(O)(CC(=O)O)CC(=O)O | 0% | – |
| B1 | – | Km [12]: 8 µM |

Reference: ChEMBL document CHEMBL1122993, “3-Alkyl-3-hydroxyglutaric acids: a new class of hypocholesterolemic HMG CoA reductase inhibitors. 1” (J Med Chem, 1985)
